Laboratory results published in the supplement of paper PMC10307832.

Columns and labels:
Test in all cases: relative viability (nuclei count vs DMSO), 5 days (fraction); higher = more cells survive
Dovitinib + Luminespib = compound: CN1CCN(c2ccc3nc(-c4c(N)c5c(F)cccc5[nH]c4=O)[nH]c3c2)CC1 [Dovitinib] + CCNC(=O)c1noc(-c2cc(C(C)C)c(O)cc2O)c1-c1ccc(CN2CCOCC2)cc1 [Luminespib] (partner 0.01 µM)
Method in brief: (§1)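 Relative viability equals treated-well nuclei counts divided by vehicle-well nuclei counts. Counts came from 4× images of lung cancer cell lines grown in 1536-well plates for 5 days after pin-tool dosing on the day after seeding. Dosing used one drug alone or a fixed anchor-drug dose plus five library-drug doses (not always all listed) in √10 steps, and values are medians of duplicate plates.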

Dovitinib + OSI-027 = compound: CN1CCN(c2ccc3nc(-c4c(N)c5c(F)cccc5[nH]c4=O)[nH]c3c2)CC1 [Dovitinib] + COc1cccc2cc(-c3nc([C@H]4CC[C@H](C(=O)O)CC4)n4ncnc(N)c34)[nH]c12 [OSI-027] (partner 0.5 µM)
Method in brief: as §1

Dovitinib + Lapatinib = compound: CN1CCN(c2ccc3nc(-c4c(N)c5c(F)cccc5[nH]c4=O)[nH]c3c2)CC1 [Dovitinib] + CS(=O)(=O)CCNCc1ccc(-c2ccc3ncnc(Nc4ccc(OCc5cccc(F)c5)c(Cl)c4)c3c2)o1 [Lapatinib] (partner 2 µM)
Method in brief: as §1

Dovitinib + Linsitinib = compound: CN1CCN(c2ccc3nc(-c4c(N)c5c(F)cccc5[nH]c4=O)[nH]c3c2)CC1 [Dovitinib] + C[C@]1(O)C[C@@H](c2nc(-c3ccc4ccc(-c5ccccc5)nc4c3)c3c(N)nccn32)C1 [Linsitinib] (partner 1 µM)
Method in brief: as §1

Cell Line	relative viability (Dovitinib + Luminespib; first compound 0.02 µM)	relative viability (Dovitinib + Luminespib; first compound 0.06325 µM)	relative viability (Dovitinib + Luminespib; first compound 0.2 µM)	relative viability (Dovitinib + Luminespib; first compound 0.6325 µM)	relative viability (Dovitinib + Luminespib; first compound 2 µM)	relative viability (Dovitinib + OSI-027; first compound 0.02 µM)	relative viability (Dovitinib + OSI-027; first compound 0.06325 µM)	relative viability (Dovitinib + OSI-027; first compound 0.2 µM)	relative viability (Dovitinib + OSI-027; first compound 0.6325 µM)	relative viability (Dovitinib + OSI-027; first compound 2 µM)	relative viability (Dovitinib + Lapatinib; first compound 0.02 µM)	relative viability (Dovitinib + Lapatinib; first compound 0.06325 µM)	relative viability (Dovitinib + Lapatinib; first compound 0.2 µM)	relative viability (Dovitinib + Lapatinib; first compound 0.6325 µM)	relative viability (Dovitinib + Lapatinib; first compound 2 µM)	relative viability (Dovitinib + Linsitinib; first compound 0.02 µM)	relative viability (Dovitinib + Linsitinib; first compound 0.06325 µM)	relative viability (Dovitinib + Linsitinib; first compound 0.2 µM)	relative viability (Dovitinib + Linsitinib; first compound 0.6325 µM)	relative viability (Dovitinib + Linsitinib; first compound 2 µM)
NCI-H2087	0.148	0.155	0.184	0.212	0.137	0.57	0.487	0.757	0.484	0.554	0.893	0.958	1.01	1.02	1.16	0.953	0.943	1.09	1	0.825
NCI-H2228	0.104	0.151	0.161	0.141	0.172	0.638	0.533	0.512	0.681	0.635	1.18	0.942	0.991	1.08	0.831	0.789	0.632	0.669	0.967	0.633
NCI-H727	0.272	0.373	0.285	0.322	0.373	0.778	0.434	0.589	0.653	0.548	0.904	0.629	0.673	0.882	0.91	0.271	0.325	0.314	0.298	0.408
NCI-H650	0.798	0.667	0.808	0.744	0.788	0.503	0.515	0.538	0.521	0.565	0.91	0.819	0.784	0.896	1.12	0.953	0.675	0.839	0.95	1.01
NCI-H520	0.218	0.219	0.192	0.201	0.212	0.279	0.248	0.334	0.244	0.23	0.826	0.822	0.903	0.79	0.921	0.832	0.964	0.986	0.868	1.07
EBC-1	–	–	–	–	–	–	–	–	–	–	0.25	0.228	0.222	0.194	0.216	0.855	0.861	0.85	0.884	0.912
NCI-H661	0.87	0.93	0.924	0.936	0.975	0.689	0.706	0.753	0.732	0.729	0.562	0.512	0.51	0.437	0.483	0.537	0.547	0.618	0.613	0.654
NCI-H1299	–	–	–	–	–	–	–	–	–	–	0.948	1	0.966	0.892	0.966	0.913	0.954	0.959	0.951	0.976
LK-2	0.191	0.162	0.179	0.219	0.182	0.187	0.192	0.202	0.252	0.173	0.878	0.914	0.858	0.83	0.709	0.688	0.604	0.484	0.608	0.565
NCI-H1993	0.873	0.716	0.816	0.728	0.346	0.599	0.545	0.597	0.505	0.573	0.853	0.803	0.952	0.799	0.731	0.774	0.678	0.657	0.695	0.808
NCI-H838	0.277	0.307	0.349	0.25	0.289	0.324	0.41	0.385	0.37	0.471	0.907	1.11	1.05	0.919	0.97	0.97	1.05	0.999	1.01	0.977
NCI-H2170	0.892	0.79	0.857	0.538	0.652	0.572	0.711	0.718	0.708	0.723	0.291	0.243	0.273	0.267	0.277	–	–	–	–	–
NCI-H1648	–	–	–	–	–	0.236	0.251	0.291	0.307	0.252	–	–	–	–	–	–	–	–	–	–
LCLC-103H	0.963	1	1.01	0.885	0.922	0.415	0.477	0.523	0.452	0.479	–	–	–	–	–	1.09	0.988	1.03	1.08	1.04
NCI-H441	0.351	0.382	0.286	0.32	0.342	0.639	0.565	0.682	0.61	0.644	–	–	–	–	–	0.512	0.537	0.541	0.599	0.499
NCI-H1650	0.199	0.192	0.199	0.189	0.19	0.687	0.619	0.621	0.711	0.768	0.656	0.698	0.792	0.743	0.875	–	–	–	–	–
SW 900	0.181	0.173	0.176	0.164	0.149	0.465	0.556	0.616	0.54	0.62	–	–	–	–	–	–	–	–	–	–
IA-LM	–	–	–	–	–	–	–	–	–	–	1.07	0.693	0.709	0.648	0.821	0.602	0.544	0.627	0.614	0.547
HCC-366	–	–	–	–	–	0.807	0.829	0.848	0.914	0.791	0.892	1.08	1.03	1.07	1.01	0.645	0.584	0.549	0.665	0.592
NCI-H522	1.15	0.989	1.01	1.19	1.07	0.685	0.721	0.654	0.768	0.686	–	–	–	–	–	–	–	–	–	–
HCC-78	–	–	–	–	–	0.384	0.544	0.373	0.403	0.388	0.539	–	0.901	1.03	0.663	0.693	–	0.626	0.478	0.532
